# Experiments:
# [1] = tested on: cultured human keratinocytes; test: [3H]-thymidine incorporation and DNA content in cultured human keratinocytes; assay type: cell-based; settings: 24 hours, FIG. 12
# Method: To determine the ability of exogenous glucosylceramides (GlcCER) to stimulate epidermal proliferation, we applied various concentrations of GlcCER to cultural human keratinocytes (third passage). Keratinocytes were isolated from human neonatal foreskins by a modification of the method of Pittelkow, M. R. and Scott, R. E. ( (1986) Proc. Mayo Clin. 61:771-777) Cells were added to 100 mm plastic Petri dishes at a density of 1 to 2×10^4 cells/cm^2, and grown initially in 10mls of Keratinocyte Growth Medium (KGM) (Clonetics, San Diego, Calif.) with 0.07 mM calcium. The cultures were maintained at 35° C. under 5% CO2 in air, with medium changes performed three times weekly. After the cells reached 70%-80% confluence, they were switched to KGM medium containing 1.2 mM calcium, and harvested at one week post-confluence. GlcCER was added for the last 24 hours of culture and ^3H-thymidine (1 μCi/ml) was added one-to-three hours prior to harvesting of cells for measurement of DNA synthesis and DNA content. (Proksch, E., et al., J. Clin. Invest. 87:1668-1673 (1991).
# Using the method described in Example 5, incorporation of [^3H]-thymidine and total DNA content were measured in cultured human keratinocytes (CHK) grown in serum-free keratinocyte growth medium (KGM) supplemented with 0.07 mM .calcium. Cultured cell were further supplemented as indicated, with ceramide (Cer; 5 or 10 μM), glucosylceramide (GlcCER; 1.25 or 2.5 μM), or a combination of ceramide and glucosylceramide (10 and 1.25 μM, respectively).
# CHK cells were grown in serum-free KGM supplemented both with 0.07 mM calcium and 10 μM ceramide (CER). Increasing concentrations of glucosylceramide were added (2.5 to 10 μM), and both [^3H]-thymidine (1 μCi/ml) and [^14C]-leucine (1 μCi/ml) incorporation assays were performed.
# CHK cells were grown (as in Example 6)in serum-free KGM (0.07 mM calcium) and supplemented with increasing concentrations of ceramide (CER) alone (dark bars), glucosylceramide (GlcCer) alone (back row), or the combination of ceramide (10 μM) with increasing glucosylceramide (front row). […] Glucosylceramide alone again stimulated thymidine incorporation (>20%) at low concentrations (1.25 and 2.5 μM).
# CHK cells were grown (as in Example 6) in serum-free KGM ([…]) supplemented with glucosylceramide (GlcCER) alone, or in combination with the β-glucocerebrosidase-inhibitor, CBE (3 or 10 μM) (FIG. 12). Incorporation of [^3H]-thymidine was measured at 24 hours following supplementation, and values are reported as percent of unsupplemented controls (mean ±S.D.; n>6). […] A low CBE concentration (3 μM) was ineffective.
# murine epidermis [2] = test: Epidermal DNA synthesis, [3H]-thymidine incorporation in vivo; design: species or system mouse
# Method: To assess the effects of a topical β-glucocerebrosidase inhibitor, conduritol-B-epoxide (CBE) in epidermal DNA synthesis two slightly different dosage protocols have been employed. In all cases, mice were treated topically with 20 μl to 40 μl of 250 nmol/μl CBE bid for 2-5 days on the right flank. On the last day, the mice were injected intraperitoneally with ^3H-thymidine (1 μCi/G body weight) diluted 1:10 in 100-200 μl isotonic NaCl. After one hour the mice were sacrificed. Whole skin was excised and subcutaneous fascia and fat were removed by scraped. Skin samples were placed dermis side downward onto 10 mM EDTA in phosphate buffered saline (PBS-CMF; pH 7.4) and incubated at 37° C. for 40 min. The skin was blotted dry with a tissue and epidermis removed by scraping with a surgical blade. The epidermis was minced into small pieces and placed in microcentrifuge vials. Samples were immediately snap frozen and stored in liquid nitrogen until immediately prior to preparation of the epidermal homogenates. 300 μl of 10 mM EDTA in PBS-CMF (pH 7.4) was added to all samples which then underwent tissue homogenization using Polytron (15 sec, ×2 on ice. Polytron tip was rinsed between each homogenization with 400 μl 10 mM EDTA in PBS-CMF. Rinses were combined with same original samples. Samples were sonicated twice for 10 sec on ice. 100 μl of 20% TCA was added and left for 10 min at 4° C. Samples were centrifuged at 2000×g at 4° C. for 5 min. The supernatant was discarded. 500 μl of 5% TCA was added and the samples were centrifuged at 2000×g at 4° C. for 5 min. The supernatant was discarded and this step was repeated again. The precipitate was resuspended in 1ml of 1N NaOH and vortexed. 400 μl or NaOH plus 400 μl of 1N HCl with 8ml Ecolume was used as a background blank. Vials were counted the following day.
# We next determined whether the topical administration of structurally similar but less efficient β-glucosidase inhibitors would induce epidermal hyperproliferation. Animals were treated topically twice daily with either Conduritol-B-epoxide, Conduritol B (CB), or deoxynojirimycin (dNJM), each at 40 μl of 250 nmol/μl twice daily, as described in Example 10. After 24 hours, [^3H]-thymidine was injected intraperitoneally and incorporation of thymidine into DNA was determined (FIG. 26 A&B). […] This reduced activity is a result of the relative availability of these inhibitors to in vivo tissues.
# Animals were treated as described in Example 10.
# We next determined whether occlusion with a vapor-impermeable membrane would enhance the effects of a β-glucocerebrosidase inhibitor on epidermal DNA synthesis. […] After 24 hrs animals were injected with [^3H]-thymidine, and incorporation into DNA was determined (Proksch, et. al., J. Clin. Invest. 87:1668-1673, 1991).
# murine epidermis [3] = test: as above; design: species or system mouse; settings: CBE 750 nmol/5cm^2/day, five days; FIG. 17
compound,measurement,setting,value
"O[C@H]1[C@H](O)[C@@H](O)[C@@H]2O[C@@H]2[C@@H]1O (racemic) [CBE, conduritol-B-epoxide]",inhibition of thymidine incorporation caused by higher glucosylceramide concentrations,[1]; CBE 3 μM with GlcCER,ineffective
same,inhibition of thymidine incorporation caused by higher glucosylceramide concentrations,[1]; CBE 10 μM with GlcCER,blocked the inhibition
same,"DNA synthesis, CBE, GlcCER and occlusion","murine epidermis [2]; latex wrap, 24 hrs",increased DNA synthesis
same,epidermal DNA synthesis ([3H]-thymidine incorporation),"murine epidermis [2]; topical 40 μl of 250 nmol/μl twice daily, after 24 hours",potent stimulation
same,"DNA synthesis rates, CBE+occlusion vs CBE alone","murine epidermis [2]; water-vapor impermeable latex wrap, 24 hrs, 4 separate studies",equivalent or higher
same,"proliferative index, CBE-treated over control epidermis ([3H]-thymidine incorporation)",murine epidermis [3],approximately 1.6
